Data set [1] deals with Mus musculus. The experiment in a line: Anticonvulsant activity in Swiss albino mouse assessed as protection against maximal electroshock-induced seizures at 100 mg/kg, ip administered for 30 mins followed by electric shock treatment. It counts as functional. On the technique in general: The maximal electroshock test induces tonic seizures with an electrical stimulus.
Data set [2] concerns Mus musculus. The data set is described as follows: Hypnotic activity in mouse assessed as decrease in locomotors activity at 100 mg/kg, ip after 20 mins. The data set is classed as functional, organism-based.
Data set [3] relates to Mus musculus. The experiment in a line: Protective index, ratio of TD50 for Swiss albino mouse assessed as motor performance to ED50 for protection against maximal electroshock-induced seizure in ip dosed Swiss albino mouse. It counts as functional.
Data set [4] deals with Mus musculus. The experiment in a line: Hypnotic activity in mouse assessed as calmness at 100 mg/kg, ip after 20 mins. The data set is classed as functional, organism-based.
Data set [5] can be described thus: Therapeutic index, ratio of LD50 for ip dosed Swiss albino mouse to ED50 for protection against pentylenetetrazole induced seizure in ip dosed Swiss albino mouse. The data set is classed as organism-based. The conditions noted are these: in vivo, read-out: Ratio LD50/ED50.
Data set [6] concerns Mus musculus. The experiment in a line: Potency index, ratio of compound activity to sodium valproate activity against pentylenetetrazole-induced seizure in ip dosed Swiss albino mouse. The data set is classed as functional.
Data set [7] deals with Mus musculus. The experiment in a line: Hypnotic activity in mouse assessed as loss of righting reflex and sleep at 200 mg/kg, ip after 20 mins. It counts as functional, organism-based.
Data set [8] relates to Mus musculus. The data set is described as follows: Toxicity in picrotoxin-induced Swiss albino mouse convulsion model assessed as time of death at 200 mg/kg, ip administered for 30 mins followed by picrotoxin challenge. The conditions noted are these: in vivo, 0.5 h. It counts as organism-based.
In data set [9] the test system is Mus musculus. The experiment in a line: Hypnotic activity in mouse assessed as loss of righting reflex and sleep at 100 mg/kg, ip after 2 mins. The data set is classed as functional, organism-based.
Data set [10] deals with Mus musculus. The data set is described as follows: Protective index, ratio of TD50 for Swiss albino mouse assessed as motor performance to ED50 for protection against pentylenetetrazole-induced seizure in ip dosed Swiss albino mouse. It counts as functional.
The subject of data set [11] is Mus musculus. The data set is described as follows: Anticonvulsant activity in Swiss albino mouse assessed as picrotoxin-induced onset of convulsion time at 200 mg/kg, ip administered for 30 mins followed by picrotoxin challenge. It counts as functional.
Data set [12] deals with Mus musculus. The data set is described as follows: Anticonvulsant activity in Swiss albino mouse assessed as picrotoxin-induced convulsions frequency time at 200 mg/kg, ip administered for 30 mins followed by picrotoxin challenge. It counts as functional.
Data set [13] has as its system Mus musculus. The experiment in a line: Protective index, ratio of TD50 for Swiss albino mouse assessed as motor performance to ED50 for protection against picrotoxin-induced seizure in ip dosed Swiss albino mouse. The data set is classed as functional.
Data set [14] relates to Mus musculus. The experiment in a line: Anticonvulsant activity in Swiss albino mouse assessed as protection against pentylenetetrazole-induced seizure at 100 mg/kg, ip after 20 mins. The data set is classed as functional.
The subject of data set [15] is Mus musculus. The experiment in a line: Anticonvulsant activity in ip dosed Swiss albino mouse assessed as protection against maximal electroshock-induced seizures administered for 30 mins followed by electric shock treatment. The data set is classed as functional. The conditions noted are these: 0.5 h.
In data set [16] the test system is Mus musculus. The experiment in a line: Toxicity in pentylenetetrazole induced Swiss albino mouse convulsion model assessed as time of death at 200 mg/kg, ip administered for 20 mins followed by pentylenetetrazole challenge. The note with it: in vivo. It counts as organism-based.
In data set [17] the test system is Mus musculus. The data set is described as follows: Anticonvulsant activity in Swiss albino mouse assessed as pentylenetetrazole induced onset of convulsion time at 200 mg/kg, ip administered for 20 mins followed by pentylenetetrazole challenge. The data set is classed as functional.
Data set [18] deals with Mus musculus. The data set is described as follows: Anticonvulsant activity in Swiss albino mouse assessed as pentylenetetrazole induced convulsions frequency time at 200 mg/kg, ip administered for 20 mins followed by pentylenetetrazole challenge. It counts as functional.
For data set [19], the system named is Mus musculus. The experiment in a line: Hypnotic activity in mouse assessed as decrease in locomotors activity at 200 mg/kg, ip after 20 mins. It counts as functional, organism-based.
Data set [20] deals with Mus musculus. The experiment in a line: Hypnotic activity in mouse assessed as quietness at 200 mg/kg, ip after 20 mins. It counts as functional, organism-based.
Data set [21] has as its system Mus musculus. The experiment in a line: Hypnotic activity in mouse assessed as calmness at 200 mg/kg, ip after 20 mins. It counts as functional, organism-based.
The test system of data set [22] is Mus musculus. The data set is described as follows: Anticonvulsant activity in Swiss albino mouse assessed as protection against maximal electroshock-induced seizures at 200 mg/kg, ip administered for 30 mins followed by electric shock treatment. The data set is classed as functional.
Data set [23] concerns Mus musculus. The experiment in a line: Anticonvulsant activity in Swiss albino mouse assessed as pentylenetetrazole induced onset of convulsion time at 100 mg/kg, ip administered for 20 mins followed by pentylenetetrazole challenge. The data set is classed as functional.
Data set [24] relates to Mus musculus. The experiment in a line: Toxicity in pentylenetetrazole induced Swiss albino mouse convulsion model assessed as time of death at 100 mg/kg, ip administered for 20 mins followed by pentylenetetrazole challenge. It counts as organism-based. The conditions noted are these: in vivo.
Data set [25] has as its system Mus musculus. The experiment in a line: Anticonvulsant activity in Swiss albino mouse assessed as protection against pentylenetetrazole-induced seizure at 200 mg/kg, ip administered for 20 mins followed by pentylenetetrazole challenge. The data set is classed as functional.
Data set [26] concerns Mus musculus. The data set is described as follows: Anticonvulsant activity in Swiss albino mouse assessed as pentylenetetrazole induced convulsions frequency time at 100 mg/kg, ip administered for 20 mins followed by pentylenetetrazole challenge. It counts as functional.
Data set [27] deals with Mus musculus. The data set is described as follows: Hypnotic activity in mouse assessed as muscle relaxation at 200 mg/kg, ip after 15 mins. It counts as functional, organism-based.

Active and inactive are the calls of the source. The rule behind the calls is not given here.

Consider `CC1=C(Br)SC2=NC(=O)CCCN21`, for which the Activity in the data set on Mus musculus [1] and in the data set on Mus musculus [14] was 100% throughout. Besides, the result in the data set on Mus musculus [2], in the data set with Mus musculus [4], in the data set with Mus musculus [7] and with Mus musculus [9] was Active. In addition, the figures for the “Ratio TD50/ED50” value in the data set on Mus musculus [3], with Mus musculus [10] and in the data set on Mus musculus [13] were 2.17, 1.51 and 1.31, respectively. For the same compound, the selectivity ratio in data set [5] stood at 5.71. For the same compound, in the data set on Mus musculus [6], the Ratio is 4. The Time in the data set on Mus musculus [8] was 23.1 min; in the data set with Mus musculus [11], 13.5 min; with Mus musculus [12], 5 min. Moreover, the median effective dose (ED50) in the data set on Mus musculus [15] was 78 mg/kg.
As for `CC1=CN2CC/C(=C\c3ccc(Br)cc3)C(=O)N=C2S1`, the Time in the data set with Mus musculus [16] is 2.6 min; in the data set with Mus musculus [17], 1.2 min; in the data set with Mus musculus [8] it was 14.3 min; with Mus musculus [18] it was 2.1 min; with Mus musculus [11], 8 min; in the data set with Mus musculus [12] it was 6 min.
As for `CCOC(=O)C1=C(C)N2CC/C(=C\c3ccc(Br)cc3)C(=O)N=C2S1`, the Time stood at 8.4 min in the data set with Mus musculus [16]; 7.3 min with Mus musculus [17]; 11.6 min with Mus musculus [8]; 4.1 min with Mus musculus [18]; 8.1 min in the data set with Mus musculus [11]; 6.1 min with Mus musculus [12]. Besides, in the data set on Mus musculus [19], the result was Active.
`CC1=CSC2=NC(=O)CCCN12`: the Time with Mus musculus [16] was determined as 4.1 min; with Mus musculus [17], 1.5 min; in the data set with Mus musculus [8], 18.5 min; in the data set on Mus musculus [18] it was 3.1 min; in the data set on Mus musculus [11], 13.9 min; with Mus musculus [12], 6.7 min. In addition, the outcome with Mus musculus [20] was Active.
Turning to `CCOC(=O)C1=C(C)N2CC/C(=C\c3ccc(OC)cc3)C(=O)N=C2S1`, the Time was found to be 3.7 min with Mus musculus [16]; 2.2 min in the data set with Mus musculus [17]; 18.3 min with Mus musculus [8]; 2.3 min in the data set with Mus musculus [18]; 9.1 min with Mus musculus [11]; 11.1 min in the data set on Mus musculus [12].
For `CC1=CN2CCCC(=O)N=C2S1`, the Time in the data set on Mus musculus [16] was found to be 5.2 min; with Mus musculus [17], 4.1 min; with Mus musculus [8], 10.1 min; with Mus musculus [18], 3.1 min; in the data set with Mus musculus [11], 7.1 min; in the data set on Mus musculus [12], 8.7 min. Besides, the result with Mus musculus [20] was Active.
Turning to `COc1ccc(/C=C2\CCN3C=C(C)SC3=NC2=O)cc1`, the Time in the data set on Mus musculus [16] turned out to be 27.3 min; in the data set with Mus musculus [17], 4.1 min; with Mus musculus [8], 8.1 min; in the data set with Mus musculus [18], 5.3 min; with Mus musculus [11], 10.1 min; in the data set on Mus musculus [12], 3 min. Moreover, the outcome in the data set on Mus musculus [21] was Active.
For the compound `CC1=CSC2=NC(=O)/C(=C/c3ccc(Br)cc3)CCN12`, the Time in the data set on Mus musculus [16] came out at 3.6 min; in the data set with Mus musculus [17] it was 2.1 min; with Mus musculus [8] it was 19.5 min; in the data set with Mus musculus [18], 2 min; in the data set with Mus musculus [11] it was 12.5 min; in the data set with Mus musculus [12], 2.5 min. The result in the data set with Mus musculus [20] was Active.
Turning to `CC1=C(Sc2ccccc2C(=O)O)SC2=NC(=O)CCCN21`, the Time in the data set with Mus musculus [16] was found to be 3.8 min; in the data set on Mus musculus [17] it was 1.5 min; in the data set on Mus musculus [8], 12.3 min; with Mus musculus [18] it was 2.8 min; in the data set on Mus musculus [11], 7.8 min; in the data set on Mus musculus [12], 7.3 min. In the data set on Mus musculus [19], the result was Active.
`COc1ccc(/C=C2\CCN3C(C)=CSC3=NC2=O)cc1`: the Time with Mus musculus [16] stood at 5.1 min; with Mus musculus [17], 2.3 min; in the data set with Mus musculus [8], 20.7 min; in the data set on Mus musculus [18] it was 1.9 min; in the data set on Mus musculus [11] it was 11.3 min; in the data set on Mus musculus [12], 9.5 min. Also, in the data set with Mus musculus [20], the result was Active.
Regarding `CCOC(=O)C1=C(C)N2CCCC(=O)N=C2S1`, the Activity with Mus musculus [22] and with Mus musculus [25] was 100% throughout. Moreover, the “Ratio TD50/ED50” value is listed as 2.22 in the data set with Mus musculus [3], 1.57 in the data set with Mus musculus [10] and 1.35 in the data set on Mus musculus [13]. Besides, the selectivity ratio in [5] stood at 5.28. Besides, the Time with Mus musculus [23] came to 4.6 min; with Mus musculus [24] it was 6.3 min; in the data set with Mus musculus [26] it was 2 min. For the same compound, the Ratio with Mus musculus [6] came out at 2. Moreover, the result in the data set on Mus musculus [19], with Mus musculus [21] and in the data set with Mus musculus [27] was Active. Besides, the median effective dose (ED50) in the data set with Mus musculus [15] worked out at 90 mg/kg.

For orientation: ED50 means the dose that gives a 50% effect, or the effect in half of the subjects.

The values above are taken from ChEMBL document CHEMBL3758123, “Synthesis, biological evaluation and molecular modeling study of some new thiazolodiazepine analogs as CNS active agents” (Bioorg Med Chem Lett, 2016).
